Experimental data: patent US7709471B2, “Compounds” (AstraZeneca AB, priority 2006, dated 2010)

Key:
recombinant Plk1 = recombinant Plk1 (Homo sapiens, UniProt P53350); test: In Vitro Plk1 Enzyme Assay (SPA, GST-Cdc25C phosphorylation); format: biochemical; settings: ATP 64 nM, 90 minutes, read-out: IC50 (Plk1 enzyme inhibition)
[1] = tested on: human colon tumour cell line HT29; test: Cellular Assay (phosphohistone H3 Ser10 mitotic marker, HT29); format: cell-based; settings: HT-29, 24 h, HT29 cells, read-out: IC50 (cellular assay, phosphohistone H3)

recombinant Plk1, sequence (P53350 whole entry): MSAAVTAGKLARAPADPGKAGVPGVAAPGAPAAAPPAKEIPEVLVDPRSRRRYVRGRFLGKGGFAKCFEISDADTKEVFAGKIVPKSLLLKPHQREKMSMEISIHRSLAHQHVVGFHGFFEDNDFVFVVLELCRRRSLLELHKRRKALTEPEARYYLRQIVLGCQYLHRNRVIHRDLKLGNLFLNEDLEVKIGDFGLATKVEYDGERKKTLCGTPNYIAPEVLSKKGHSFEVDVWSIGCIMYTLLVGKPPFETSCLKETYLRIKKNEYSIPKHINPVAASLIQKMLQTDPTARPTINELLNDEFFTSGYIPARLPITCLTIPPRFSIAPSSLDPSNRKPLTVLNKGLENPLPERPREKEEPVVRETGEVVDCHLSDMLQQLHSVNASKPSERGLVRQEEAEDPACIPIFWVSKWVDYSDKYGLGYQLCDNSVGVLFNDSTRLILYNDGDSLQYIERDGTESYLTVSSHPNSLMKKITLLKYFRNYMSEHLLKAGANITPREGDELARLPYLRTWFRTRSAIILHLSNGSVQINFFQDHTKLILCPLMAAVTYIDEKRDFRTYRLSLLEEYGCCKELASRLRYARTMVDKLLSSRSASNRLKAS

| Compound | IC50 (recombinant Plk1) [nM] | IC50 [1] [nM] |
| --- | --- | --- |
| CCOc1cc(C(=O)N[C@H]2C[C@H]3CCC[C@@H](C2)N3C)ccc1Nc1ncc2c(n1)N(C(C)C)CCC(=O)N2C [Example 283, 3-ethoxy-N-[(1S,5R)-9-methyl-9-azabicyclo[3.3.1]non-7-yl]-4-[(6-methyl-5-oxo-2-propan-2-yl-2,6,9,11-tetrazabicyclo[5.4.0]undeca-8,10,12-trien-10-yl)amino]benzamide] | < 300 | < 300 |
| CN1C(=O)CCN(C2CCCC2)c2nc(Nc3ccc(CNC(=O)c4ccccn4)cc3)ncc21 [Example 133, N-[[4-[(6-cyclopentyl-2-methyl-3-oxo-2,6,8,10-tetrazabicyclo[5.4.0]undeca-8,10,12-trien-9-yl)amino]phenyl]methyl]pyridine-2-carboxamide] | < 100000 | < 30000 |
| COc1cc(C(=O)NCCN2CCOCC2)ccc1Nc1ncc2c(n1)N(c1ccccc1)CCC(=O)N2C [Example 220, 3-methoxy-4-[(2-methyl-3-oxo-6-phenyl-2,6,8,10-tetrazabicyclo[5.4.0]undeca-8,10,12-trien-9-yl)amino]-N-(2-morpholin-4-ylethyl)benzamide] | < 1000 | < 30000 |
| COc1cc(C(=O)NCCN(C)C)ccc1Nc1ncc2c(n1)N(C(C)C)CCC(=O)N2C [Example 207, N-(2-dimethylaminoethyl)-3-methoxy-4-[(2-methyl-3-oxo-6-propan-2-yl-2,6,8,10-tetrazabicyclo[5.4.0]undeca-7,9,11-trien-9-yl)amino]benzamide] | < 300 | < 300 |
| COc1cc(C(=O)NC2CCN(C)CC2)ccc1Nc1ncc2c(n1)N(C1CCCC1)C(C)CC(=O)N2C (centres unmarked) [Example 234, 4-[(6-cyclopentyl-2,5-dimethyl-3-oxo-2,6,8,10-tetrazabicyclo[5.4.0]undeca-8,10,12-trien-9-yl)amino]-3-methoxy-N-(1-methyl-4-piperidyl)benzamide] | < 300 | < 1000 |

Next, values leading:

| IC50 (recombinant Plk1) [nM] | IC50 [1] [nM] | Compound |
| --- | --- | --- |
| < 300 | < 300 | CN1CCC(NC(=O)c2ccc(Nc3ncc4c(n3)N(C3CCCC3)CCC(=O)N4C)cc2F)CC1 [Example 189, 4-[(6-cyclopentyl-2-methyl-3-oxo-2,6,8,10-tetrazabicyclo[5.4.0]undeca-8,10,12-trien-9-yl)amino]-2-fluoro-N-(1-methyl-4-piperidyl)benzamide] |
| < 100000 | < 30000 | COc1cc(C(=O)NC2CCCCC2)ccc1Nc1ncc2c(n1)N(CCN(C)C)CCC(=O)N2C [Example 275, N-cyclohexyl-4-[[2-(2-dimethylaminoethyl)-6-methyl-5-oxo-2,6,9,11-tetrazabicyclo[5.4.0]undeca-7,9,11-trien-10-yl]amino]-3-methoxy-benzamide] |
| < 1000 | < 30000 | CC(C)N1CCC(=O)N(C)c2cnc(Nc3ccc(C(=O)NCCN4CCOCC4)cc3Cl)nc21 [Example 228, 3-chloro-4-[(2-methyl-3-oxo-6-propan-2-yl-2,6,8,10-tetrazabicyclo[5.4.0]undeca-7,9,11-trien-9-yl)amino]-N-(2-morpholin-4-ylethyl)benzamide] |
| < 1000 | < 300 | COc1cc(C(=O)NCCCNc2ccccn2)ccc1Nc1ncc2c(n1)N(C1CCCC1)CCC(=O)N2C [Example 38, 4-[(6-cyclopentyl-2-methyl-3-oxo-2,6,8,10-tetrazabicyclo[5.4.0]undeca-8,10,12-trien-9-yl)amino]-3-methoxy-N-[3-(pyridin-2-ylamino)propyl]benzamide] |
| < 1000 | < 300 | CCCNC(=O)c1ccc(Nc2ncc3c(n2)N(C2CCCC2)CCC(=O)N3C)c(OC)c1 [Example 93, 4-[(6-cyclopentyl-2-methyl-3-oxo-2,6,8,10-tetrazabicyclo[5.4.0]undeca-8,10,12-trien-9-yl)amino]-3-methoxy-N-propyl-benzamide] |
